Reference: patent US6610689B2, “HIV protease inhibitors based on amino acid derivatives” (priority 2001, dated 2003)
Like-named read-outs stand apart in the source and are kept apart here.

Target: T1, HIV protease (Human immunodeficiency virus type 1 group M subtype B, UniProt P04585)
T1 construct: A third viral enzyme known as protease then cleaves the polyproteins
Assay: Enzymatic Assay for Determining the Inhibition Constant (Ki) of Synthetic Compounds Targeting the HIV Protease (fluorometric FRET assay)
Assay type: biochemical
Text: Enzymatic Assay for Determining the Inhibition Constant (Ki) of Synthetic Compounds Targeting the HIV Protease
This is a fluorometric assay based on the cleavage by protease of a substrate carrying a donor group (EDANS) and an acceptor group (DABCYL) on each side of the cleavage site, interacting together through fluorescence resonance energy transfer (FRET) as described by Matayoshi et al. (Science 247:[…], 1990).
After calculation of Vo and Vi, the inhibition constant (Ki) of the compound is determined using the equation of Henderson: [formula]
where Vo=the enzyme's initial velocity
Vi=the enzyme velocity in the presence of the inhibitory compound,
[I]=inhlibitor concentration, [S]=substrate concentration,
Km=Michaelis-Menten constant and Kiapp=apparent Ki
Graphs are traced and the Ki determined using GraphPad Prism software v. 3.0.

[1] = Table 1, compounds of formula I, read-out: Ki (anti-protease activity)

Molecule	Ki [nM]	Ki [1] [nM]
Cc1ccc(S(=O)(=O)N(CC(C)C)[C@H](CO)CCCCNC(=O)[C@H](Cc2c[nH]c3ccccc23)NS(=O)(=O)c2ccc(N)cc2)cc1 [Example 161, (2S,2′S) 2-N-Isobutyl-2-N-(4-methylbenzenesulfonyl)-6-N-[N′α-(4-aminobenzenesulfonyl)-S-tryptophanyl]-2,6-diaminohexanol]	1.4	–
CC(C)CN([C@@H](CCCCNC(=O)[C@H](Cc1c[nH]c2ccccc12)NS(=O)(=O)c1ccc(N)cc1)C(=O)O)S(=O)(=O)c1ccc(N)cc1 [Example 5, Nα-Isobutyl-Nα-(4-aminobenzenesulfonyl)-Nε-[N′α-(4-aminobenzenesuifonyl)-L-tryptophanyl]-L-lysine]	0.459	–
Cc1ccc(S(=O)(=O)N(CC(C)C)[C@@H](CCCCNC(=O)[C@H](CC(C)C)NS(=O)(=O)c2ccccc2)C(=O)O)cc1 [Example 22, Nα-Isobutyl-Nα-(4-methylbenzenesulfonyl)-Nε-(N′α-benzenesulfonyl-L-leucyl]-L-lysine]	29	–
Cc1ccc(S(=O)(=O)N(CC(C)C)[C@@H](CCCCNC(=O)[C@H](Cc2ccccc2)NC(=O)NCCO)C(=O)O)cc1 [Example 199, Nα-Isobutyl-Nα-(4-methylbenzenesulfonyl)-Nε-(N′α-ethanolaminocarbonyl-L-phenylalanyl)-L-lysine]	2.2	–
Cc1ccc(S(=O)(=O)N(CC(C)C)[C@@H](CCCCNC(=O)[C@H](Cc2ccccc2)NS(=O)(=O)c2cccs2)C(=O)O)cc1 [Example 24, Nα-Isobutyl-Nα-(4-methylbenzenesulfonyl)-Nε-[N′α-(2-thiophenesulfonyl)-L-phenylalanyl]-L-lysine]	0.506	–
Cc1ccc(S(=O)(=O)N(CC(C)C)[C@@H](CCCCNC(=O)[C@H](Cc2ccccc2)NC(=O)N2CCCC2)C(=O)O)cc1 [Example 197, Nα-Isobutyl-Nα-(4-methylbenzenesulfonyl)-Nε-(N′α-pyrrolidinecarbonyl-L-phenylalanyl)-L-lysine]	1.7	–
COc1ccc(CN(CC(=O)NCCCC[C@@H](C(=O)O)N(CC(C)C)S(=O)(=O)c2ccc(C)cc2)c2ccccc2)cc1 [Example 174, Nα-Isobutyl-Nα-(4-methylbenzenesulfonyl)-Nε-[N′α-(4-methoxybenzyl)-N′α-phenylglycyl]-L-lysine]	1.4	–
Cc1ccc(S(=O)(=O)N(CC(C)C)[C@@H](CCCCNC(=O)[C@H](Cc2ccccc2)NS(=O)(=O)c2ccc(F)cc2)C(=O)O)cc1 [Example 18, Nα-Isobutyl-Nα-(4-methylbenzenesulfonyl)-Nε-[N′α-(4-fluorobenzenesulfonyl)-L-phenylalanyl]-L-lysine]	8.3	–
Cc1ccc(S(=O)(=O)N(CC(C)C)[C@H](CO)CCCCNC(=O)CN(CCc2ccccc2)c2ccccc2)cc1 [Example 160, (2S) 2-N-Isobutyl-2-N-(4-methylbenzenesulfonyl)-6-N-(N′α-phenethyl-N′α-phenylglycyl]-2,6-diaminohexanol]	–	52
Cc1ccc(S(=O)(=O)N[C@@H](CC(=O)O)C(=O)NCCCC[C@@H](C(=O)O)N(CC(C)C)S(=O)(=O)c2ccc(C)cc2)cc1 [Example 41, Nα-Isobutyl-Nα-(4-methylbenzenesulfonyl)-Nε-[N′α-(4-methylbenzenesulfonyl)-L-aspartyl]-L-lysine]	172	–
Cc1ccc(S(=O)(=O)N(CC(C)C)[C@@H](CCCCNC(=O)[C@H](Cc2cn(Cc3ccccc3)cn2)NC(=O)OC(C)(C)C)C(=O)O)cc1 [Example 85, Nα-Isobutyl-Nα-(4-methylbenzenesulfonyl)-Nε-(N′α-tert-butoxycarbonyl-Nτ-benzyl-L-histidinyl)-L-lysine]	124	–
Cc1ccc(S(=O)(=O)N(CC(C)C)[C@H](CO)CCCCNC(=O)[C@H](Cc2c[nH]c3ccccc23)NC(=O)OCC(C)C)cc1 [Example 192, (2S,2′S) 2-N-Isobutyl-2-N-(4-methylbenzenesulfonyl)-6-N-(N′α-isobutoxycarbonyl-S-tryptophanyl)-2,6-diaminohexanol]	4.5	–
Cc1ccc(S(=O)(=O)N[C@@H](Cc2c[nH]c3ccccc23)C(=O)NCCCC[C@@H](CO)N(CC(C)C)S(=O)(=O)c2ccc(N)cc2)cc1 [Example 145, (2S,2′S) 2-N-(4-Aminobenzenesulfonyl)-2-N-isobutyl-6-N-[N′α-(4-methylbenzenesulfonyl)-S-tryptophanyl]-2,6-diaminohexanol]	1.9	–
Nα-Isobutyl-Nα-(4-methylbenzenesulfonyl)-Nε-(N′α-benzylglycyl)-L-lysine [Example 109]	–	> 300
CSCC[C@H](N)C(=O)NCCCC[C@@H](C(=O)O)N(CC(C)C)S(=O)(=O)c1ccc(C)cc1 [Example 89, Nα-Isobutyl-Nα-(4-methylbenzenesulfonyl)-Nε-(L-methionyl)-L-lysine]	33	–
Cc1ccc(S(=O)(=O)N[C@@H](COCc2ccccc2)C(=O)NCCCC[C@@H](C(=O)O)N(CC(C)C)S(=O)(=O)c2ccc(C)cc2)cc1 [Example 40, Nα-Isobutyl-Nα-(4-methylbenzenesulfonyl)-Nε-[N′α-(4-methylbenzenesulfonyl)-O-benzyl-L-seryl]-L-lysine]	8	–

Molecule	Ki [nM]	Ki [1] [nM]
Cc1ccc(S(=O)(=O)N[C@@H](Cc2c[nH]c3ccccc23)C(=S)NCCCC[C@@H](CO)N(CC(C)C)S(=O)(=O)c2ccc(C)cc2)cc1 [Example 102]	51	–
Cc1ccc(S(=O)(=O)N(CC(C)C)C(CCCCNC(=O)C(Cc2ccccc2)NC(=O)OC2CCOC2)C(=O)O)cc1 [Example 80, Nα-Isobutyl-Nα-(4-methylbenzenesulfonyl)-Nε-[N′α-(carbotetrahydro-3-furanyloxy)-L-phenylalanyl]-L-lysine]	1.4	–
Cc1ccc(S(=O)(=O)N(CC(C)C)[C@@H](CCCCNC(=O)[C@H](Cc2ccccc2)N(C)C(=O)OC(C)(C)C)C(=O)O)cc1 [Example 81, Nα-Isobutyl-Nα-(4-methylbenzenesulfonyl)-Nε-(N′α-tert-butoxycarbonyl-N′α-methyl-L-phenylalanyl)-L-lysine]	3.8	–
Cc1ccc(S(=O)(=O)N(CC(C)C)[C@@H](CCCCNC(=O)[C@H](Cc2ccccc2)NS(=O)(=O)c2cccs2)C(N)=O)cc1 [Example 58, Nα-Isobutyl-Nα-(4-methylbenzenesulfonyl)-Nε-[N′α-(2-thiophenesulfonyl)-L-phenylalanyl]-L-lysinamide]	5.2	–
CC(=O)N[C@@H](Cc1c[nH]c2ccccc12)C(=O)NCCCC[C@@H](CO)N(CC(C)C)S(=O)(=O)c1ccc(N)cc1 [Example 168, (2S,2′S) 2-N-(4-Aminobenzenesulfonyl)-2-N-isobutyl-6-N-(N′α-acetyl-S-tryptophanyl)-2,6-diaminohexanol]	3.8	–
COC(=O)[C@H](CCCCNC(=O)[C@H](Cc1ccccc1)NC(=O)c1ccccc1)N(CC(C)C)S(=O)(=O)c1ccc(C)cc1 [Example 70, Nα-Isobutyl-Nα-(4-methylbenzenesulfonyl)-Nε-(N′α-benzoyl-L-phenylalanyl)-L-lysine Methyl Ester]	> 300	–
COC(=O)[C@H](CCCCNC(=O)[C@H](Cc1ccccc1)NS(=O)(=O)c1cccs1)N(CC(C)C)S(=O)(=O)c1ccc(C)cc1 [Example 57, Nα-Isobutyl-Nα-(4-methylbenzenesulfonyl)-Nε-[N′α-(2-thiophenesulfonyl)-L-phenylalanyl]-L-lysine Methyl Ester]	> 300	–
COc1ccc(S(=O)(=O)N(CC2CCCC2)[C@@H](CCCCNC(=O)[C@H](Cc2c[nH]c3ccccc23)NC(=O)OC(C)(C)C)C(=O)O)cc1 [Example 151, Nα-Cyclopentylnethyl-Nα-(4-methoxybenzenesulfonyl)-Nε-(N′α-tert-butoxycarbonyl-L-tryptophanyl)-L-lysine]	5.3	–
COC(=O)N[C@@H](Cc1c[nH]c2ccccc12)C(=O)NCCCC[C@@H](CO)N(CC(C)C)S(=O)(=O)c1ccc(N)cc1 [Example 178, (2S,2′S) 2-N-(4-Aminobenzenesulfonyl)-2-N-isobutyl-6-N-(N′α-methoxycarbonyl-S-tryptophanyl)-2,6-diaminohexanol]	2	–
CCCC[C@H](NS(=O)(=O)c1ccccc1)C(=O)NCCCC[C@@H](C(=O)O)N(CC(C)C)S(=O)(=O)c1ccc(C)cc1 [Example 15, Nα-Isobutyl-Nα-(4-methylbenzenesulfonyl)-Nε-[N′α-(benzenesulfonyl)-L-norleucyl]-L-lysine]	34	–
Cc1ccc(S(=O)(=O)N(CC(C)C)[C@H](CO)CCCCNC(=O)[C@H](Cc2ccccc2)NS(=O)(=O)c2ccccc2)cc1 [Example 123, (2S,2′S) 2-N-Isobutyl-2-N-(4-methylbenzenesulfonyl)-6-N-(N′α-benzenesulfonyl-S-phenylalanyl)-2,6-diaminohexanol]	14	–
Cc1ccc(S(=O)(=O)N(CC(C)C)[C@@H](CCCCNC(=O)[C@@H](N)[C@@H](C)OCc2ccccc2)C(=O)O)cc1 [Example 91, Nα-Isobutyl-Nα-(4-methylbenzenesulfonyl)-Nε-(O-benzyl-L-threonyl)-L-lysine]	10	–
Cc1ccc(S(=O)(=O)N(CC(C)C)[C@@H](CCCCNC(=O)CNc2cccnc2)C(=O)O)cc1 [Example 106, Nα-Isobutyl-Nα-(4-methylbenzenesulfonyl)-Nε-[N′α-(3-pyridyl)glycyl]-L-lysine]	> 300	–
Cc1ccc(S(=O)(=O)N(CC(C)C)[C@H](CO)CCCCNC(=O)[C@H](Cc2c[nH]c3ccccc23)NC(=O)C(C)(C)C)cc1 [Example 117, (2S,2′S) 2-N-Isobutyl-2-N-(4-methylbenzenesulfonyl)-6-N-(N′α-pivaloyl-S-tryptophanyl)-2,6-diaminohexanol]	0.428	–
CC(C)CN([C@@H](CCCCNC(=O)[C@H](Cc1ccccc1)NS(=O)(=O)c1cccs1)C(=O)O)S(=O)(=O)c1ccc([N+](=O)[O-])cc1 [Example 29, Nα-Isobutyl-Nα-(4-nitrobenzenesulfonyl)-Nε-[N′α-(2-thiophenesulfonyl)-L-phenylalanyl]-L-lysine]	11	–
